# From US20190202774A1, “BIARYL COMPOUNDS AS ANTIMICROBIAL AND CHEMOTHERAPEUTIC AGENTS” (priority 2015, published 2019)
# Entries after “also recorded” stand apart in the source; their conditions may differ. Where a name gives a salt, the structure may show the parent alone. Read-outs that look alike come from different tables or passages of the source.
# Legend:
# [1] = system: MRSA strain USA300; assay: DiSC3(5) membrane permeabilization; type: cell-based, Staphylococcus aureus; conditions: positive control, 100 nM
# Experimental: Biaryl compounds and their analogues have been reported to be membrane active agents (Isnansetyo and Kamei, 2003 and Kamei et al., 2003). An experiment was performed to verify the membrane permeabilization activity of biaryl compound. C58 using a fluorescent dye, 3,3′-Dipropylthiacarbocyanine iodide (DiSC3(5)). The fluorescence signal from DiSC3(5) is in a quenched state when it interacts with the hydrophobic region of the cell membrane. Upon disruption of the membrane, DiSC3(5) is released and regains its fluorescent activity, which is measured as a fluorescence signal (RFU).
# [2] = system: H2073; assay: Lung cancer cell survival, H2073; type: cell-based; conditions: 72 hour incubation, non-linear curve fit
# Experimental: (§1) The IC50 values generated using a non-linear curve fit with lung cancer cell lines, A549, H460, H2122, and H2073 are listed in Table 10. Experiments were performed using C58, C58-2, C59, C59-2, C119, and acetylated C119 (C119-2). […] Additionally, these concentrations are clinically achievable for treatment of lung cancer and a detailed structure activity relationship experiments needs to be performed to identify promising anticancer candidates.
# [3] = system: A549; assay: Lung cancer cell survival, A549; type: cell-based; conditions: 72 hour incubation, non-linear curve fit
# Experimental: as §1
# [4] = system: H460; assay: Lung cancer cell survival, H460; type: cell-based; conditions: 72 hour incubation, non-linear curve fit
# Experimental: as §1
# [5] = system: H2122; assay: Lung cancer cell survival, H2122; type: cell-based; conditions: 72 hour incubation, non-linear curve fit
# Experimental: as §1
# [6] = system: erythrocytes from sheep blood; assay: Hemolytic activity
# Experimental: Toxicity of biaryl compounds was tested against erythrocytes as well as eukaryotic epithelial, dermal, and macrophage cell lines in vitro.
# Toxicity of lead antimicrobial candidates was tested against erythrocytes, as well as eukaryotic epithelial and dermal cell lines in vitro.
# [7] = system: MRSA strains USA300, 0606, 0608, 0634, 0641, and 0646; assay: MIC/MBC against six MRSA strains (variants of C58/C59, pH, DMSO); type: cell-based, Staphylococcus aureus
# Experimental: Six MRSA strains, USA300, 0606, 0608, 0634, 0641, and 0646 were chosen based on their activity against biaryl compounds and vancomycin to determine structure-activity relationship of biaryl compounds. The effect of phenolic group on the activity of biaryl compounds was tested by modifying C59. First, the phenolic group was protected by acetylation to yield an acetylated C59 (C59-2) (FIG. 7B). Additional variants of C59, in the form of sodium and lithium salts were synthesized by incubation with sodium hydroxide and lithium hydroxide (FIGS. 7C and 7D). Antimicrobial activity of these deprotonated, water-soluble sodium (C59Na) and lithium (C59Li) salts, and acetylated derivative of C59 was tested against 6 MRSA strains and compared to the parent compound, C59 (FIGS. 8A-8D). Results from this comparative experiment indicate the contribution of phenolic group/phenoxide ion to the antimicrobial activity.
# Further investigation into activity of these compounds under acidic pH conditions also points towards the role of phenolic group. An effective antimicrobial should be active under a wide range of pH conditions, including the physiological pH of 7.4. Localized pH in an infection is often lower than the physiological pH, and may be as low as 5.5 (Radovic-Moreno et al., 2012). Additionally, pH varies among organs (Radovic-Moreno et al., 2012). For example, pH in the bladder or on the skin is found to be between 4.5 and 8.0, or 4.0 and 5.5, respectively (Radovic-Moreno et al., 2012). […] The activity of all biaryl compounds is enhanced by at least four- to eight-fold with reduction in pH from 7.4 to 5.5.
# Water soluble sodium and lithium salts of C59 (C59Na and C59Li) and their antimicrobial activity against six MRSA strains are reported above. A sodium salt of C58 (C58Na) was prepared and evaluated efficacy of this compound against these six MRSA strains. […] The poor activity of C58Na may be a result of poor stability of C58Na compared with C59Na and C59Li.
# [8] = system: human lung airway epithelial cells (16HBE); conditions: 24-h incubation, non-linear curve fit
# Experimental: Finally, toxicity of biaryl compounds was tested against human lung airway epithelial cells (16HBE), human dermal fibroblasts, and J774.A1 murine macrophages using an ALAMARBLUE® Cell Viability Assay. Biaryl compounds, C58, acetylated C58 (C58-2), C59, C59-2, C59Na, and C59Li were incubated with cells for 24 hours and an ALAMARBLUE® Cell Viability Assay was performed to determine cell viability relative to untreated controls (FIGS. 13A-13C). Cell viability curves were analyzed using non-linear curve fit to yield the inhibitory concentration at median cell survival (LD50) for all cell lines (Table 3).
# Next, the toxicity of lead candidates was tested against human lung airway epithelial cells (16HBE) and human dermal fibroblasts (HDF) using an alamarBlue® Cell Viability Assay.
# [9] = system: R. equi strains 701+, 701−, 703, and 5331; assay: MIC/MBC broth microdilution against R. equi; type: cell-based, Rhodococcus equi
# [10] = system: 38 MRSA strains
# [11] = system: 38 MRSA strains; assay: microbe, parasite or virus in culture; conditions: Staphylococcus aureus
# [12] = system: MRSA strains USA300 and SALL06; assay: Kill kinetics with stationary-phase MRSA; type: cell-based, Staphylococcus aureus
# [13] = system: seven S. pneumoniae strains; assay: MIC/MBC against panel of S. pneumoniae strains; type: cell-based; conditions: Streptococcus pneumoniae
# Experimental: The activity of compounds against Gram-positive pathogens, S. pyogenes and S. pneumoniae, identified through the preliminary screen (FIG. 15) was evaluated against a panel of these pathogens.
# [14] = system: MRSA strain USA300; assay: Kill kinetics with planktonic log-phase MRSA; type: cell-based, Staphylococcus aureus; conditions: log-phase USA300, 24 hours
# [15] = system: E. faecalis strains 49532 and 51575; assay: MIC/MBC broth microdilution against E. faecalis; type: cell-based, Enterococcus faecalis; conditions: Enterococcus faecalis
# [16] = system: MRSA strains SAD05 and 0632 in a biofilm; assay: MBEC High-throughput biofilm assay; type: cell-based, Staphylococcus aureus; conditions: 6 hours
# [17] = system: 21 S. epidermidis strains; assay: MIC90/MBC90 broth microdilution against 21 S. epidermidis strains; type: cell-based, Staphylococcus epidermidis; conditions: Staphylococcus epidermidis
# Excerpt: We are currently in the process of evaluating the MICs and MBCs for 5-32.
# [18] = read-out: MBC90, 38 MRSA strains, MH broth
structure (smiles),measurement,setting,value
"O=C(Nc1ccc(Cl)c(Cl)c1)c1cc(Cl)cc(Cl)c1O [3,3′,4′,5-tetrachlorosalicylanilide, reference compound]",membrane disruption (DiSC3(5) fluorescence),[1],positive membrane disruption
CC(=O)Oc1c(Br)cc(Br)cc1-c1cc(Br)cc(Br)c1OC(C)=O [C58-2],H2073 LD50,[2],36 µM
same,A549 LD50,[3],74 µM
same,H460 LD50,[4],51 µM
same,H2122 LD50,[5],87 µM
[Na+].[Na+].[O-]c1c(Br)cc(Br)cc1-c1cc(Br)cc(Br)c1[O-] [C58Na],onset of hemolysis,[6],32 to 48 µg/mL
same,activity in the absence of DMSO versus with 2.5% DMSO,[7],at least comparable activity
same,antimicrobial activity (MIC and MBC) compared to the parent compound,[7],poor activity
same,16HBE LD50,[8],92.3 µg/mL
CC(=O)Oc1c(Cl)cc(Cl)cc1-c1cc(Cl)cc(Cl)c1OC(C)=O [C59-2],H2073 LD50,[2],45 µM
same,antimicrobial activity (MIC and MBC) compared to the parent compound,[7],Reduction of activity
same,MBC,[9]; strain 701+,16 µg/mL
same,MIC,[9]; strain 701+,4 µg/mL
same,MBC,[9]; strain 701−,16 µg/mL
same,MIC,[9]; strain 701−,4 µg/mL
same,MBC,[9]; strain 703,16 µg/mL
same,MIC,[9]; strain 703,2 µg/mL
same,MBC,[9]; strain 5331,16 µg/mL
same,MIC,[9]; strain 5331,4 µg/mL
same,A549 LD50,[3],74 µM
same,H460 LD50,[4],73 µM
same,H2122 LD50,[5],99 µM
[Li+].[Li+].[O-]c1c(Cl)cc(Cl)cc1-c1cc(Cl)cc(Cl)c1[O-] [C59Li],activity in the absence of DMSO versus with 2.5% DMSO,[7],at least comparable activity
same,antimicrobial activity (MIC and MBC) compared to the parent compound,[7],enhanced activity; also recorded: superior activity over C59
same,16HBE LD50,[8],24.4 µg/mL
Nc1c(-c2c(O)ccc3ccccc23)cc(Cl)c(Cl)c1Cl [C119],H2073 LD50,[2],33 µM
same,A549 LD50,[3],52 µM
same,H460 LD50,[4],37 µM
same,H2122 LD50,[5],58 µM
CCC[C@@H]1C[C@@H](C(=O)N[C@@H]([C@H]2O[C@H](SC)[C@H](O)[C@@H](O)[C@H]2O)[C@H](C)Cl)N(C)C1 [Clindamycin hydrochloride],MBC90,"[10]; MH broth, hydrochloride",>32 µg/mL
same,MIC90,"[10]; MH broth, hydrochloride",>32 µg/mL
same,MIC90,"[11]; 38 MRSA strains, MH broth",≥ 32 µg/mL
same,MBC,[11]; [18],≥ 32 µg/mL
CCCCCCCCCC(=O)N[C@@H](Cc1c[nH]c2ccccc12)C(=O)N[C@H](CC(N)=O)C(=O)N[C@@H](CC(=O)O)C(=O)N[C@@H]1C(=O)NCC(=O)N[C@@H](CCCN)C(=O)N[C@@H](CC(=O)O)C(=O)N[C@H](C)C(=O)N[C@@H](CC(=O)O)C(=O)NCC(=O)N[C@H](CO)C(=O)N[C@@H]([C@H](C)CC(=O)O)C(=O)N[C@@H](CC(=O)c2ccccc2N)C(=O)O[C@@H]1C [Daptomycin hydrochloride],MBC90,[10]; MH broth,>32 µg/mL
same,MBC90,[10]; cation adjusted MH broth,2 µg/mL
CC(=O)NC[C@H]1CN(c2ccc(N3CCOCC3)c(F)c2)C(=O)O1 [Linezolid],MIC90,"[11]; 38 MRSA strains, MH broth",4 µg/mL
same,MBC,[11]; [18],> 32 µg/mL
"CO[C@H]1/C=C/O[C@@]2(C)Oc3c(C)c(O)c4c(O)c(c(/C=N/N5CCN(C)CC5)c(O)c4c3C2=O)NC(=O)/C(C)=C\C=C\[C@H](C)[C@H](O)[C@@H](C)[C@@H](O)[C@@H](C)[C@H](OC(C)=O)[C@@H]1C [Rifampicin, reference compound]",MBC,"[9]; Rhodococcus (subgen. Prescottella) equi, strain 701+, read-out: MBC",> 192 µg/mL
same,MIC,"[9]; Rhodococcus (subgen. Prescottella) equi, strain 701+, read-out: MIC",0.5 µg/mL
same,MBC,"[9]; Rhodococcus (subgen. Prescottella) equi, strain 701−, read-out: MBC",> 192 µg/mL
same,MIC,"[9]; Rhodococcus (subgen. Prescottella) equi, strain 703",0.125 µg/mL
same,MBC,"[9]; Rhodococcus (subgen. Prescottella) equi, strain 703, read-out: MBC",80 µg/mL
same,MIC,"[9]; Rhodococcus (subgen. Prescottella) equi, strain 5331",0.125 µg/mL
same,MBC,"[9]; Rhodococcus (subgen. Prescottella) equi, strain 5331, read-out: MBC",32 µg/mL
same,MIC,[9]; strain 701−,0.5 µg/mL
"CN[C@H](CC(C)C)C(=O)N[C@H]1C(=O)N[C@@H](CC(N)=O)C(=O)N[C@H]2C(=O)N[C@H]3C(=O)N[C@H](C(=O)N[C@H](C(=O)O)c4cc(O)cc(O)c4-c4cc3ccc4O)[C@H](O)c3ccc(c(Cl)c3)Oc3cc2cc(c3O[C@@H]2O[C@H](CO)[C@@H](O)[C@H](O)[C@H]2O[C@H]2C[C@](C)(N)[C@H](O)[C@H](C)O2)Oc2ccc(cc2Cl)[C@H]1O [Vancomycin hydrochloride, reference compound]",bacterial counts versus untreated controls,"[12]; at 24 hours, 0.5-2.0",no difference
same,eradication of stationary-phase bacteria,"[12]; stationary-phase USA300 and SALL06, up to 24 hours",fails to eradicate the bacterial burden completely
same,change of activity with reduction in pH from 7.4 to 5.5,"[7]; pH 7.4, 6.5, 5.5",does not exhibit any improvement
same,MBC,[13]; read-out: MBCs,0.25 to 0.5 µg/mL
same,MIC,[13]; read-out: MICs,0.25 to 0.5 µg/mL
same,dose response of bacterial eradication,[14],absence of dose response
same,MBC,[15]; strain 49532,> 512 µg/mL
same,MIC,[15]; strain 49532,1 µg/mL
same,MBC,[15]; strain 51575,> 192 µg/mL
same,MIC,[15]; strain 51575,192 µg/mL
same,activity against biofilm mode bacteria,[16],Lack of activity
same,MIC90,[11],2 µg/mL
same,MBC,[11]; read-out: MBC90,16 µg/mL
same,MIC90,[17],4 µg/mL
same,MBC,[17]; read-out: MBC90,8 µg/mL
